What is called EC50 is the concentration giving half of the maximal effect.

The subject of this assay is HIV-1 NL4-3 viral clone expressing Renilla luciferase. Description: microbe, parasite or virus in culture. In kind it is cell-based. To be noted: Human immunodeficiency virus 1, NL43, MT2, 96 h. The method, then:
Protocol for MT-2 Spread Assay
The present assay was used to screen candidate antiviral compounds by quantification of virus spread and production over several rounds of infection in vitro. MT-2, a HIV-1 permissive human T-cell line, was seeded in microtiter plates and was simultaneously treated with serially diluted compound and inoculated with a HIV-1 NL4-3 viral clone engineered to express Renilla luciferase in place of Net Following treatment, the culture was incubated for 96 hours. After the incubation, media was collected and used to estimate relative infectivity on the indicator cell line, TZM-bl. Additionally, viral spread was quantified by measuring luciferase activity via a commercially available luciferase substrate. In parallel, MT-2 cells were seeded and inoculated with mock virus in the presence of serially diluted compound. Compound toxicity was quantified 96 hours after treatment with AlamarBlue.
MT-2 (NIH Aids reagent program 237) cells were grown and maintained in an incubator at 37° C. with 5% CO2 using a basal medium of RPMI-1640 supplemented with 10% FBS. Cells were seeded in 100 μl at 2×10^4 cells/well in white walled 96-well microtiter plates. Candidate compounds were 3-fold serially diluted in the appropriate solvent. Solvent without compound was used as a no drug reference. Cells were inoculated at a multiplicity of 0.027 with an HIV-1 NL4-3 virus stock engineered to express Renilla luciferase in place of Net Diluted virus stock was first added to serially diluted compound. Compound and virus were delivered to cells in an equal volume (100 μl) and treated cultures were returned to the incubator for 96 hours. In parallel, plates for cytotoxicity estimates were prepared in the same way except cells were plated in clear walled 96-well microtiter plates and were mock infected.
At 96 hours post infection, 100 μl virus containing culture supernatant was collected from the treated and infected cultures and serially diluted in DMEM supplemented with 10% FBS, 1% sodium pyruvate, and 20 μg/ml DEAE dextran. One day prior, TZM-bl (ATCC PTA-5659) were cultured in basal medium of DMEM supplemented with 10% FBS and 1% sodium pyruvate and seeded at 7.5×10^3 cells/well in black walled 96-well microtiter plates. Diluted virus containing culture supernatant was transferred to TZM-bl cultures and incubated for 48 hours at 37° C. with 5% CO2. Infected TZM-bl cultures were fixed for 5 minutes with a 1% formaldehyde/0.2% gluteraldehyde/PBS solution then washed three times with PBS. Fixed cultures were incubated at 37° C. for 25 minutes with a 200 μg/ml MUG (4-Methylumbelliferyl β-D-[…])/DMEM solution. The reaction was stopped with an equal volume of 1M sodium carbonate and read at 360, 449 nm on fluorescence plate reader (Biotek).
At 96 hours post infection, 100 μl of culture supernatant was removed from the treated and infected cultures and EnduRen live cell substrate (Promega) was added at a final concentration 1.3 μg/ml. Cells were incubated for 1.5 hours at 37° C. with 5% CO2 then read on a luminescence plate reader (Biotek).
For all assays, data was imported into Accelrys Assay Explorer 3.3. In Assay Explorer, % inhibition (antiviral or cytotoxicity) was calculated using the solvent control as a reference by the following equation: 1−(SignalCompound/SignalReference). The % Inhibition and compound concentration data was fitted using the following 4-parameter logistic model (Assay Explorer model 42):
[formula] where X is compound concentration, Y is % inhibition, D is the maximum % Inhibition (constrained to 100%), C is IC50 value or inflection point, B is the hill slope, and A is the minimum % inhibition (constrained to 0%). The IC50 value is reported as the EC50 or CC50 depending on the assay endpoint. EC50 represents the effective concentration at which virus replication is inhibited by 50 percent. CC50 represents the concentration that results in the death of 50 percent of the host cells. […]

Consider `COc1ccccc1/C=C/C1NCCc2cc(OCc3ccccc3)c(OC)cc21` (stereo not shown) [DG, (E)-6-(benzyloxy)-7-methoxy-1-(2-methoxystyryl)-1,2,3,4-tetrahydroisoquinoline], for which it took 2200 nM to reach a half-maximal effect (EC50). As to `COc1cc2c(cc1OCc1ccccc1)CCNC2/C=C/c1ccccc1N1CCOCC1` (stereo not shown) [DH, (E)-4-(2-(2-(6-(benzyloxy)-7-methoxy-1,2,3,4-tetrahydroisoquinolin-1-yl)vinyl)phenyl)morpholine], a half-maximal effect (EC50) was put at 5260 nM. In the case of `COc1ccc2cc(/C=C/C3NCCc4cc(OCc5ccccc5)c(OC)cc43)ccc2c1` (stereo not shown) [DI, (E)-6-(benzyloxy)-7-methoxy-1-(2-(6-methoxynaphthalen-2-yl)vinyl)-1,2,3,4-tetrahydroisoquinoline] it was 628 nM; in that of `COc1cc2c(cc1OCc1ccccc1)CCNC2/C=C/c1ccc(-c2cccnc2)cc1` (stereo not shown) [DJ], 393 nM.

For the compound `COc1cc2c(cc1OCc1ccccc1)CCNC2/C=C/c1ccc(-n2ccnc2)cc1` (stereo not shown) [DK, (E)-1-(4-(1H-imidazol-1-yl)styryl)-6-(benzyloxy)-7-methoxy-1,2,3,4-tetrahydroisoquinoline], it took 107 nM to reach a half-maximal effect (EC50). `COc1cc2c(cc1OCc1ccccc1)CCNC2/C=C/c1ccc2cccnc2c1` (stereo not drawn) [DL, (E)-7-(2-(6-(benzyloxy)-7-methoxy-1,2,3,4-tetrahydroisoquinolin-1-yl)vinyl)quinoline] had an EC50 of 96.9 nM. In turn, `COc1cc2c(cc1OCc1ccccc1)CCNC2/C=C/c1ccc(-n2ccnc2C)cc1` (stereo not shown) [DM, (E)-6-(benzyloxy)-7-methoxy-1-(4-(2-methyl-1H-imidazol-1-yl)styryl)-1,2,3,4-tetrahydroisoquinoline] gave an EC50 of 1520 nM. `COc1cccc(-c2ncc(/C=C/C3NCCc4cc(OCc5ccccc5)c(OC)cc43)cn2)c1` (stereo not shown) [DN] had an EC50 of 2400 nM. `CCN1CCN(c2ccc(/C=C/C3NCCc4cc(OCc5ccccc5)c(OC)cc43)cc2)CC1` (stereo not shown) [DO, (E)-6-(benzyloxy)-1-(4-(4-ethylpyrazin-1-yl)styryl)-7-methoxy-1,2,3,4-tetrahydroisoquinoline] showed an EC50 of 496 nM. `COc1cc2c(cc1OCc1ccccc1)CCNC2/C=C/c1cn(C)c2ncccc12` (stereo not shown) [DP] returned an EC50 of 15 nM. The compound `COc1cc2c(cc1OCc1ccccc1)CCNC2/C=C/c1cccc(-c2ccncc2)c1` (stereo not shown) [DQ, 6-(Benzyloxy)-7-methoxy-1-[(E)-2-[3-(pyridin-4-yl)phenyl]ethenyl]-1,2,3,4-tetrahydroisoquinoline] gave an EC50 of 126 nM.

As for `COc1cc2c(cc1OCc1ccccc1)CCNC2/C=C/c1cscn1` (stereo not shown) [DR, 6-(Benzyloxy)-7-methoxy-1-[(E)-2-(1,3-thiazol-4-yl)ethenyl]-1,2,3,4-tetrahydroisoquinolin], a half-maximal response (EC50) required 4820 nM. Compound `COc1cc2c(cc1OCc1ccccc1)CCNC2/C=C/c1ccc(-c2cncnc2)cc1` (stereo not shown) [DS, 6-(Benzyloxy)-7-methoxy-1-[(E)-2-[4-(pyrimidin-5-yl)phenyl]ethenyl]-1,2,3,4-tetrahydroisoquinoline] gave an EC50 of 116 nM. For `COc1cc2c(cc1OCc1ccccc1)CCNC2/C=C/c1ccc(-n2cncn2)cc1` (stereo not shown) [DT, 6-(Benzyloxy)-7-methoxy-1-[(E)-2-[4-(1H-1,2,4-triazol-1-yl)phenyl]ethenyl]-1,2,3,4-tetrahydroisoquinoline], the half-maximal effective concentration (EC50) came to 157 nM. Regarding `COc1cc2c(cc1OCc1ccccc1)CCNC2/C=C/c1cc2ccccc2s1` (stereo not shown) [DU, 1-[(E)-2-(1-Benzothiophen-2-yl)ethenyl]-6-(benzyloxy)-7-methoxy-1,2,3,4-tetrahydroisoquinoline], the EC50 was 10100 nM.

Compound `COc1cc2c(cc1OCc1ccccc1)CCNC2/C=C/c1nccs1` (stereo not shown) [DV, 6-(Benzyloxy)-7-methoxy-1-[(E)-2-(1,3-thiazol-2-yl)ethenyl]-1,2,3,4-tetrahydroisoquinoline] registered an EC50 of 29500 nM. This EC50 is about 2.9-fold higher than that of the compound before. In the case of `COc1cc2c(cc1OCc1ccccc1)CCNC2/C=C/c1ccc(N2CCN(C)CC2)cc1` (stereo not shown) [DW, 6-(Benzyloxy)-7-methoxy-1-[(E)-2-[4-(4-methylpiperazin-1-yl)phenyl]ethenyl]-1,2,3,4-tetrahydroisoquinoline] it was 1240 nM; in that of `COc1cc2c(cc1OCc1ccccc1)CCNC2/C=C/c1ccccc1N1CCCCC1` (stereo not shown) [DX, 6-(Benzyloxy)-7-methoxy-1-[(E)-2-[2-(piperidin-1-yl)phenyl]ethenyl]-1,2,3,4-tetrahydroisoquinoline], 4200 nM. In the case of `COc1cc2c(cc1OCc1ccccc1)CCNC2/C=C/c1scnc1C` (stereo not shown) [DY, 5-[(E)-2-(6-Benzyloxy-7-methoxy-1,2,3,4-tetrahydroisoquinolin-1-yl)vinyl]-4-methyl-thiazole] it was 5510 nM. `COc1cc2c(cc1OCc1ccccc1)CCNC2/C=C/c1ccc(-c2ccccn2)cc1` (stereo not shown) [DZ, 6-Benzyloxy-7-methoxy-1-[(E)-2-[4-(2-pyridyl)phenyl]vinyl]-1,2,3,4-tetrahydroisoquinoline] gave an EC50 of 650 nM. The result for `COc1cc2c(cc1OCc1ccccc1)CCNC2/C=C/c1ccc(N2CCCCC2)cc1` (stereo not shown) [EA, 6-Benzyloxy-7-methoxy-1-[(E)-2-[4-(1-piperidyl)phenyl]vinyl]-1,2,3,4-tetrahydroisoquinoline] reads 2100 nM; that for `COc1cc2occc2cc1/C=C/C1NCCc2cc(OCc3ccccc3)c(OC)cc21` (stereo not shown) [EB, 6-Benzyloxy-7-methoxy-1-[(E)-2-(6-methoxybenzofuran-5-yl)vinyl]-1,2,3,4-tetrahydroisoquinoline], 300 nM. `COc1cc2c(cc1OCc1ccccc1)CCNC2/C=C/c1cccc(-c2ncco2)c1` (stereo not shown) [EC, 2-[3-[(E)-2-(6-Benzyloxy-7-methoxy-1,2,3,4-tetrahydroisoquinolin-1-yl)vinyl]phenyl]oxazole] came in with an EC50 of 930 nM. In the case of `COc1cc2c(cc1OCc1ccccc1)CCNC2/C=C/c1ccc(-c2ncco2)cc1` (stereo not shown) [ED, 2-[4-[(E)-2-(6-Benzyloxy-7-methoxy-1,2,3,4-tetrahydroisoquinolin-1-yl)vinyl]phenyl]oxazole] it was 580 nM; in that of `CCOC(=O)c1coc(-c2ccc(/C=C/C3NCCc4cc(OCc5ccccc5)c(OC)cc43)cc2)n1` (stereo not shown) [EE, Ethyl 2-[4-[(E)-2-(6-benzyloxy-7-methoxy-1,2,3,4-tetrahydroisoquinolin-1-yl)vinyl]phenyl]oxazole-4-carboxylate], 990 nM. In the case of `CCOC(=O)c1coc(-c2cccc(/C=C/C3NCCc4cc(OCc5ccccc5)c(OC)cc43)c2)n1` (stereo not shown) [EF, Ethyl 2-[3-[(E)-2-(6-benzyloxy-7-methoxy-1,2,3,4-tetrahydroisoquinolin-1-yl)vinyl]phenyl]oxazole-4-carboxylate] it was 1000 nM; in that of `COc1cc2c(cc1OCc1ccccc1)CCNC2/C=C/c1ccc2c(c1)OCC2` (stereo not shown) [EG, 6-Benzyloxy-1-[(E)-2-(2,3-dihydrobenzofuran-6-yl)vinyl]-7-methoxy-1,2,3,4-tetrahydroisoquinoline], 900 nM; in that of `COc1cc(OC)c(/C=C/C2NCCc3cc(OCc4ccccc4)c(OC)cc32)cc1C` (stereo not shown) [EH, 6-Benzyloxy-1-[(E)-2-(2,4-dimethoxy-5-methyl-phenyl)vinyl]-7-methoxy-1,2,3,4-tetrahydroisoquinolin], 66 nM. In the case of `COc1ccc(/C=C/C2NCCc3cc(OCc4ccccc4)c(OC)cc32)cc1C` (stereo not shown) [EI, 6-Benzyloxy-7-methoxy-1-[(E)-2-(4-methoxy-3-methyl-phenyl)vinyl]-1,2,3,4-tetrahydroisoquinoline] it was 340 nM; in that of `COc1cccc(/C=C/C2NCCc3cc(OCc4ccccc4)c(OC)cc32)c1` (stereo not shown) [EJ, 6-Benzyloxy-7-methoxy-1-[(E)-2-(3-methoxyphenyl)vinyl]-1,2,3,4-tetrahydroisoquinoline], 2980 nM.

With `COc1ccc(OC)c(/C=C/C2NCCc3cc(OCc4ccccc4)c(OC)cc32)c1` (stereo not shown) [EK, 6-Benzyloxy-1-[(E)-2-(2,5-dimethoxyphenyl)vinyl]-7-methoxy-1,2,3,4-tetrahydroisoquinoline], the EC50 stood at 380 nM.
